pEC50: −log10 of the molar value. Non-standard residues stand in square brackets, D forms with d. Residues, ends and D or L forms follow the SMILES beside them. ξ: configuration not given here. *: point of attachment. Ac6c(4-Ph-cis-to-N) = N[C@]1(C(=O)O)CC[C@H](c2ccccc2)CC1; ξAtc(5-Br) = NC1(C(=O)O)CCc2c(Br)cccc2C1; Pentanoyl = CCCCC(=O)*
Columns and labels:
[1] = target: T1, Melanocyte-stimulating hormone receptor (Homo sapiens, UniProt Q01726); assay: Agonist activity at human MC1R at 50 uM; assay type: functional
Target sequence in this assay (Q01726 whole entry, looked up): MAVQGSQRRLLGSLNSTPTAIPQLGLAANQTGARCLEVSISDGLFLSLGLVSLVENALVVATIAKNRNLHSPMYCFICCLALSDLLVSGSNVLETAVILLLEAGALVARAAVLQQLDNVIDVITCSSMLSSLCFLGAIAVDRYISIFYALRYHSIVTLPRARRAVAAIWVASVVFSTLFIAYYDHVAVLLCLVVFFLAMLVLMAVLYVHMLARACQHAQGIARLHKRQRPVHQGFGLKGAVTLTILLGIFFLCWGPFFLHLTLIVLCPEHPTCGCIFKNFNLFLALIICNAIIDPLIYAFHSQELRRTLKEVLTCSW

[2] = target: T2, Melanocortin receptor 4 (Homo sapiens, UniProt P32245); assay: Agonist activity in HEK293 cells transfected with human MC4R by cAMP accumulation; assay type: functional, cell-based
[3] = target: T1, Melanocyte-stimulating hormone receptor; assay: Agonist activity at human MC1R at 10 uM; assay type: functional
Target sequence in this assay (Q01726 whole entry, looked up): as above

[4] = target: T2, Melanocortin receptor 4; assay: Agonist activity at human MC4R at 100 nM; assay type: functional
[5] = target: T1, Melanocyte-stimulating hormone receptor; assay: Agonist activity in HEK293 cells transfected with human MC1R by cAMP accumulation; assay type: functional, cell-based
Target sequence in this assay (Q01726 whole entry): as the sequence (Q01726 whole entry, looked up) above

[6] = target: T1, Melanocyte-stimulating hormone receptor; assay: Agonist activity at human MC1R at 100 nM; assay type: functional
Target sequence in this assay (Q01726 whole entry, looked up): as above

T2 sequence (P32245 whole entry): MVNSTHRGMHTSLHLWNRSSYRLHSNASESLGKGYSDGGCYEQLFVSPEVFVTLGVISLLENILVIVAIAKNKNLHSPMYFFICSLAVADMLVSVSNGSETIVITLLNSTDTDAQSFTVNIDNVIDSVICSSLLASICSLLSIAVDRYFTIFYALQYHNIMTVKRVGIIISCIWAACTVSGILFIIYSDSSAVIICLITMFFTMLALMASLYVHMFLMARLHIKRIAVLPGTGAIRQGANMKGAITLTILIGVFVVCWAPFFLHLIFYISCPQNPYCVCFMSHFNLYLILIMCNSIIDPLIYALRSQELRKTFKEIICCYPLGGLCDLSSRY

Row | pEC50 [2] | Activity [3] [%] | SMILES | also measured
1 | 8.30 |  | CCCC(=O)N[C@]1(C(=O)N[C@H](Cc2ccccc2)C(=O)N[C@@H](CCCN=C(N)N)C(=O)N[C@@H](Cc2c[nH]c3ccccc23)C(=O)NCCC(N)=O)CC[C@H](c2ccccc2)CC1 | Activity [1]: 50%
2 | 8.70 | 60 | CCCCNC(=O)N[C@]1(C(=O)N[C@H](Cc2ccccc2)C(=O)N[C@@H](CCCN=C(N)N)C(=O)N[C@@H](Cc2c[nH]c3ccccc23)C(=O)NCc2cccc(C(N)=O)c2)CC[C@H](c2ccccc2)CC1 | 
3 | 8.70 | 60 | N=C(N)NCCC[C@H](NC(=O)[C@@H](Cc1ccccc1)NC(=O)[C@]1(NC(=O)Cc2ccccc2)CC[C@@H](c2ccccc2)CC1)C(=O)N[C@@H](Cc1c[nH]c2ccccc12)C(=O)NCc1cccc(C(N)=O)c1 | 
4 | 7.82 | 50 | CCCCNC(=O)NC1(C(=O)N[C@H](Cc2ccccc2)C(=O)N[C@@H](CCCN=C(N)N)C(=O)N[C@@H](Cc2c[nH]c3ccccc23)C(=O)Nc2ccccc2C(N)=O)CCc2c(Br)cccc2C1 (some centres undefined) | 
5 | 7.82 |  | CCCC(=O)NC1(C(=O)N[C@H](Cc2ccccc2)C(=O)N[C@@H](CCCN=C(N)N)C(=O)N[C@@H](Cc2c[nH]c3ccccc23)C(=O)Nc2ccccc2C(N)=O)CCc2c(Br)cccc2C1 (some centres undefined) | Activity [1]: 65%
6 | 8.70 |  | CCCCNC(=O)N[C@]1(C(=O)N[C@H](Cc2ccccc2)C(=O)N[C@@H](CCCN=C(N)N)C(=O)N[C@@H](Cc2c[nH]c3ccccc23)C(=O)NCCC(N)=O)CC[C@H](c2ccccc2)CC1 | Activity [1]: 50%
7 | 8.70 | 30 | NC(=O)CNC(=O)[C@H](Cc1c[nH]c2ccccc12)NC(=O)[C@H](CCCN=C(N)N)NC(=O)[C@@H](Cc1ccccc1)NC(=O)[C@]1(NC(=O)Cc2ccccc2)CC[C@@H](c2ccccc2)CC1 | 
8 | 7.14 |  | CCCC(=O)NC1(C(=O)N[C@H](Cc2ccccc2)C(=O)N[C@@H](CCCN=C(N)N)C(=O)N[C@@H](Cc2ccc3ccccc3c2)C(=O)Nc2ccccc2C(N)=O)CCc2c(Br)cccc2C1 (some centres undefined) | 
9 |  | 25 | CCCC(=O)N[C@]1(C(=O)N[C@H](Cc2ccccc2)C(=O)N[C@@H](CCCN=C(N)N)C(=O)NC(Cc2ccc3ccccc3c2)C(=O)N[C@@H](C)C(N)=O)CC[C@H](c2ccccc2)CC1 (some centres undefined) | Activity [4]: > 30%; pEC50 ([2]; hek293): 6.66
10 | 7.30 |  | CCCCC(=O)N[C@]1(C(=O)N[C@H](Cc2ccccc2)C(=O)N[C@@H](CCCN=C(N)N)C(=O)N[C@@H](Cc2ccc3ccccc3c2)C(=O)NCC(N)=O)CC[C@H](c2ccccc2)CC1 | 

More lines, now with the values behind:

Row | SMILES | pEC50 [2] | Activity [3] [%] | also measured
11 | CCCCNC(=O)N[C@]1(C(=O)N[C@H](Cc2ccccc2)C(=O)N[C@@H](CCCN=C(N)N)C(=O)N[C@@H](Cc2c[nH]c3ccccc23)C(=O)NCC(N)=O)CC[C@H](c2ccccc2)CC1 | 8.70 | 55 | 
12 | CCCC(=O)N[C@]1(C(=O)N[C@H](Cc2ccccc2)C(=O)N[C@@H](CCCN=C(N)N)C(=O)N[C@@H](Cc2c[nH]c3ccccc23)C(=O)N[C@@H](C)C(N)=O)CC[C@H](c2ccccc2)CC1 | 8.52 |  | Activity [1]: 25%
13 | CCCC(=O)N[C@]1(C(=O)N[C@H](Cc2ccccc2)C(=O)N[C@@H](CCCN=C(N)N)C(=O)N[C@@H](Cc2c[nH]c3ccccc23)C(=O)NCc2cccc(C(N)=O)c2)CC[C@H](c2ccccc2)CC1 | 8.70 |  | Activity [1]: 50%
14 | N=C(N)NCCC[C@H](NC(=O)[C@@H](Cc1ccccc1)NC(=O)[C@]1(NC(=O)Cc2ccccc2)CC[C@@H](c2ccccc2)CC1)C(=O)N[C@@H](Cc1c[nH]c2ccccc12)C(=O)NCc1ccc(C(N)=O)cc1 | 9.00 | 70 | 
15 | CCCCC(=O)N[C@]1(C(=O)N[C@H](Cc2ccccc2)C(=O)N[C@@H](CCCN=C(N)N)C(=O)N[C@@H](Cc2c[nH]c3ccccc23)C(=O)NCC(N)=O)CC[C@H](c2ccccc2)CC1 (Pentanoyl-[Ac6c(4-Ph-cis-to-N)][dF]RWG-NH2) |  |  | Activity [1]: 25%
16 | N=C(N)NCCC[C@H](NC(=O)[C@@H](Cc1ccccc1)NC(=O)C1(NC(=O)Cc2ccccc2)CCc2c(Br)cccc2C1)C(=O)N[C@@H](Cc1c[nH]c2ccccc12)C(=O)Nc1ccccc1C(N)=O (some centres undefined) | 7.96 | 50 | 
17 | NC(=O)CCNC(=O)[C@H](Cc1c[nH]c2ccccc12)NC(=O)[C@H](CCCN=C(N)N)NC(=O)[C@@H](Cc1ccccc1)NC(=O)[C@]1(NC(=O)Cc2ccccc2)CC[C@@H](c2ccccc2)CC1 | 8.30 | 45 | 
18 | CCCC(=O)N[C@]1(C(=O)N[C@H](Cc2ccccc2)C(=O)N[C@@H](CCCN=C(N)N)C(=O)N[C@@H](Cc2ccc3ccccc3c2)C(=O)NCCC(N)=O)CC[C@H](c2ccccc2)CC1 | 7.05 |  | 
19 | CCCC(=O)N[C@]1(C(=O)N[C@H](Cc2ccccc2)C(=O)N[C@@H](CCCN=C(N)N)C(=O)NC(Cc2ccc3ccccc3c2)C(=O)NCc2ccc(C(N)=O)cc2)CC[C@H](c2ccccc2)CC1 (some centres undefined) |  |  | Activity [1]: 15%; Activity [4]: > 30%
20 | CCCC(=O)N[C@]1(C(=O)N[C@H](Cc2ccccc2)C(=O)N[C@@H](CCCN=C(N)N)C(=O)NC(Cc2ccc3ccccc3c2)C(=O)NCCC(N)=O)CC[C@H](c2ccccc2)CC1 (some centres undefined) |  | 25 | Activity [4]: > 30%
21 | CCCC(=O)N[C@]1(C(=O)N[C@H](Cc2ccccc2)C(=O)N[C@@H](CCCN=C(N)N)C(=O)N[C@@H](Cc2c[nH]c3ccccc23)C(=O)Nc2ccccc2C(N)=O)CC[C@H](c2ccccc2)CC1 | 8.70 | 60 | 
22 | CCCCC(=O)NC1(C(=O)N[C@H](Cc2ccccc2)C(=O)N[C@@H](CCCN=C(N)N)C(=O)N[C@@H](Cc2ccc3ccccc3c2)C(=O)NCC(N)=O)CCc2c(Br)cccc2C1 (some centres undefined) | 6.70 |  | pEC50 [5]: 5.54
23 | CCCC(=O)NC1(C(=O)N[C@H](Cc2ccccc2)C(=O)N[C@@H](CCCN=C(N)N)C(=O)NC(Cc2ccc3ccccc3c2)C(=O)Nc2ccccc2C(N)=O)CCc2c(Br)cccc2C1 (some centres undefined) |  |  | Activity [1]: 60%; Activity [4]: > 30%
24 | CCCCC(=O)NC1(C(=O)N[C@H](Cc2ccccc2)C(=O)N[C@@H](CCCN=C(N)N)C(=O)N[C@@H](Cc2c[nH]c3ccccc23)C(=O)NCC(N)=O)CCc2c(Br)cccc2C1 (some centres undefined) (Pentanoyl-[ξAtc(5-Br)][dF]RWG-NH2) |  |  | Activity [1]: 50%
25 | CCCC(=O)N[C@]1(C(=O)N[C@H](Cc2ccccc2)C(=O)N[C@@H](CCCN=C(N)N)C(=O)NC(Cc2ccc3ccccc3c2)C(=O)Nc2ccccc2C(N)=O)CC[C@H](c2ccccc2)CC1 (some centres undefined) |  | 50 | Activity [4]: > 30%
26 | CCCC(=O)N[C@]1(C(=O)N[C@H](Cc2ccccc2)C(=O)N[C@@H](CCCN=C(N)N)C(=O)NC(Cc2ccc3ccccc3c2)C(=O)NCc2cccc(C(N)=O)c2)CC[C@H](c2ccccc2)CC1 (some centres undefined) |  | 25 | Activity [4]: > 30%
27 | CCCCNC(=O)N[C@]1(C(=O)N[C@H](Cc2ccccc2)C(=O)N[C@@H](CCCN=C(N)N)C(=O)N[C@@H](Cc2c[nH]c3ccccc23)C(=O)Nc2ccccc2C(N)=O)CC[C@H](c2ccccc2)CC1 | 8.70 | 75 | 
28 | CCCC(=O)N[C@]1(C(=O)N[C@H](Cc2ccccc2)C(=O)N[C@@H](CCCN=C(N)N)C(=O)N[C@@H](Cc2ccc3ccccc3c2)C(=O)NCc2ccc(C(N)=O)cc2)CC[C@H](c2ccccc2)CC1 | 7.07 |  | 
29 | N=C(N)NCCC[C@H](NC(=O)[C@@H](Cc1ccccc1)NC(=O)[C@]1(NC(=O)Cc2ccccc2)CC[C@@H](c2ccccc2)CC1)C(=O)N[C@@H](Cc1c[nH]c2ccccc12)C(=O)Nc1ccccc1C(N)=O | 8.52 | 75 | 
30 | CCCC(=O)NC1(C(=O)N[C@H](Cc2ccccc2)C(=O)N[C@@H](CCCN=C(N)N)C(=O)NC(Cc2ccc3ccccc3c2)C(=O)NCC(N)=O)CCc2c(Br)cccc2C1 (some centres undefined) |  |  | Activity [6]: 26%; Activity [4]: 30%
31 | CCCC(=O)NC1(C(=O)N[C@H](Cc2ccccc2)C(=O)N[C@@H](CCCN=C(N)N)C(=O)NC(Cc2ccc3ccccc3c2)C(=O)NCCC(N)=O)CCc2c(Br)cccc2C1 (some centres undefined) |  |  | Activity [6]: 40%; Activity [4]: 32%
32 | CCCC(=O)N[C@]1(C(=O)N[C@H](Cc2ccccc2)C(=O)N[C@@H](CCCN=C(N)N)C(=O)N[C@@H](Cc2ccc3ccccc3c2)C(=O)Nc2ccccc2C(N)=O)CC[C@H](c2ccccc2)CC1 | 7.41 |  | 
33 | C[C@H](NC(=O)[C@H](Cc1c[nH]c2ccccc12)NC(=O)[C@H](CCCN=C(N)N)NC(=O)[C@@H](Cc1ccccc1)NC(=O)[C@]1(NC(=O)Cc2ccccc2)CC[C@@H](c2ccccc2)CC1)C(N)=O | 8.52 | 30 | 
34 | CCCC(=O)N[C@]1(C(=O)N[C@H](Cc2ccccc2)C(=O)N[C@@H](CCCN=C(N)N)C(=O)N[C@@H](Cc2ccc3ccccc3c2)C(=O)NCc2cccc(C(N)=O)c2)CC[C@H](c2ccccc2)CC1 | 6.96 |  | 
35 | CCCCNC(=O)N[C@]1(C(=O)N[C@H](Cc2ccccc2)C(=O)N[C@@H](CCCN=C(N)N)C(=O)N[C@@H](Cc2c[nH]c3ccccc23)C(=O)N[C@@H](C)C(N)=O)CC[C@H](c2ccccc2)CC1 | 8.70 |  | Activity [1]: 25%
36 | CCCCC(=O)N[C@]1(C(=O)N[C@H](Cc2ccccc2)C(=O)N[C@@H](CCCN=C(N)N)C(=O)NC(Cc2ccc3ccccc3c2)C(=O)NCC(N)=O)CC[C@H](c2ccccc2)CC1 (some centres undefined) |  |  | Activity [1]: 60%
37 | CCCC(=O)N[C@]1(C(=O)N[C@H](Cc2ccccc2)C(=O)N[C@@H](CCCN=C(N)N)C(=O)N[C@@H](Cc2ccc3ccccc3c2)C(=O)NCC(N)=O)CC[C@H](c2ccccc2)CC1 | 7.36 | 25 | Activity [4]: > 30%
38 | CCCC(=O)N[C@]1(C(=O)N[C@H](Cc2ccccc2)C(=O)N[C@@H](CCCN=C(N)N)C(=O)N[C@@H](Cc2c[nH]c3ccccc23)C(=O)NCc2ccc(C(N)=O)cc2)CC[C@H](c2ccccc2)CC1 | 9.00 | 50 | 

Reference: ChEMBL document CHEMBL1141965, “Preparation of human Melanocortin-4 receptor agonist libraries: linear peptides X-Y-DPhe7-Arg8-Trp(or 2-Nal)9-Z-NH2” (Bioorg Med Chem Lett, 2005)
